What all share (assay): NCI tumour cell line growth inhibition, 48 h
Assay [1] has as its system HT29 colon.
Assay [2] concerns NCI-H226 lung.
For assay [3], the system named is NCI-H460 lung.
The test system of assay [4] is OVCAR-5 ovarian.
The subject of assay [5] is RXF 393 renal.
The test system of assay [6] is SK-MEL-5 melanoma.
Assay [7] has as its system TK-10 renal.
The subject of assay [8] is UACC-257 melanoma.
The subject of assay [9] is BT-549 breast.
Assay [10] relates to HS 578T breast.

Data on 15 molecules can be found in PubChem BioAssay (NCI).

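48-hour exposure; five concentrations; linearly interpolated endpoints. At the GI50, growth is halved. The concentration for full growth arrest is given as TGI.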

For `CC(=O)NC(CC(C)C)C(=O)NC(Cc1ccccc1)C(=S)N1CCCC1` (configuration not stated), the TGI in [1], in assay [2], in assay [3], in [4], in [5] and in [6] was greater than 100 µM throughout. Moreover, the TGI in assay [7] and in assay [8] was greater than 100 µM each time.

In the case of `Cc1ccc(S(=O)(=O)N/N=C(/c2nc3ccc([N+](=O)[O-])cc3[nH]c2=O)C(O)c2ccc(C(O)/C(=N\NS(=O)(=O)c3ccc(C)cc3)c3nc4ccc([N+](=O)[O-])cc4[nH]c3=O)cc2)cc1` (configuration not stated), the TGI in assay [1], in assay [3], in assay [4], in [5], in assay [6] and in assay [7] was greater than 100 µM throughout. Also, in assay [8], the TGI was greater than 100 µM.

As for `Cc1c(/C=N/N(C)C)oc2c1cc(O)c1ncccc12`, the TGI in [1] was greater than 100 µM; in assay [2], 48.9 µM; in [3], 41 µM; in assay [4] it was greater than 100 µM; in assay [5], 58.6 µM; in assay [6] it was 39.3 µM. The TGI in [7] and in assay [8] was greater than 100 µM each time.

As for `O=P(O)(O)C1(P(=O)(O)O)CC1`, the TGI in [1], in [2], in assay [3], in assay [4], in assay [5] and in assay [6] was greater than 100 µM throughout. The TGI in [7] and in assay [8] was greater than 100 µM each time.

Take `O=C(NNc1ccccc1)/C(=C/c1ccc2c(c1)OCO2)NC(=O)c1ccccc1`: the TGI in assay [1], in assay [2], in assay [3], in assay [4], in [5] and in [6] was greater than 100 µM each time. For the same molecule, the TGI in [7] and in assay [8] was greater than 100 µM each time.

In the case of `CC(C)(C)C(C#N)(C#N)c1ccc(C(C#N)(C#N)C(C)(C)C)nn1`, the TGI in [1], in [3], in assay [4], in [5], in [6] and in assay [7] was greater than 100 µM each time. In addition, the TGI in [8] is greater than 100 µM.

In the case of `Brc1ccc2ns[s+]c2c1`, the TGI in [1] is greater than 100 µM; in assay [2], greater than 100 µM; in assay [3], greater than 100 µM; in assay [4] it was greater than 100 µM; in assay [5], greater than 100 µM; in [6] it was greater than 46.7 µM. Further, the TGI in assay [7] and in assay [8] was greater than 100 µM each time.

On to `O=C1c2ccccc2C(=O)c2c(OCCOCCO)cccc21`, for which the TGI in assay [9] was greater than 100 µM; in assay [10] it was 99.7 µM; in [1] it was greater than 100 µM; in assay [3] it was greater than 100 µM; in assay [4] it was greater than 100 µM; in assay [5] it was greater than 100 µM. In addition, the TGI in assay [6], in assay [7] and in assay [8] was greater than 100 µM throughout.

For `O=C(COc1cccc(/C=C2\CSc3ccccc3C2=O)c1)Nc1nccs1`, the GI50 in assay [10] was 2.79 µM; in [1], 1.85 µM; in [2], 13.1 µM; in assay [3], 10 µM; in assay [4], 3.08 µM; in [6] it was 2.38 µM. Also, the GI50 in [7] is 2.25 µM; in assay [8] it was 3.02 µM. For the same molecule, the TGI was determined as 12.5 µM in assay [10]; 3.43 µM in [1]; 30.6 µM in [2]; 25.5 µM in assay [3]; 15.5 µM in assay [4]; 15.5 µM in [6]. Further, the values for the TGI in assay [7] and in [8] were 4.89 µM and 9.77 µM, respectively.

For `CC1=C(C(=O)Nc2cc(F)c(F)cc2F)C(c2ccc([N+](=O)[O-])cc2)C(C(=O)Nc2cc(F)c(F)cc2F)=C(C)N1`, the TGI is greater than 100 µM in assay [1]; greater than 100 µM in assay [2]; greater than 100 µM in [3]; greater than 100 µM in assay [4]; 63.2 µM in assay [5]; greater than 100 µM in [6]. Besides, the TGI in assay [7] is 95.1 µM; in assay [8], greater than 100 µM.

For the molecule `COc1cc(CCc2ccc(N)cc2)cc(OC)c1OC`, the TGI was greater than 100 µM in [1]; greater than 100 µM in assay [2]; greater than 100 µM in [3]; greater than 100 µM in assay [4]; greater than 91.1 µM in [5]; greater than 89.6 µM in assay [6]. The TGI in assay [7] and in [8] was greater than 100 µM throughout.

In the case of `CC(=O)OC1COC(n2c(=S)n(-c3ccccc3)c(=O)c3ccccc32)C(OC(C)=O)C1OC(C)=O` (configuration not stated), the TGI in assay [1], in assay [2], in assay [3], in assay [4], in [5] and in assay [6] was greater than 100 µM each time. Also, the TGI in assay [8] is greater than 100 µM.

Regarding `O=C(Nc1nc2c(ncn2C2OC(CO)C(O)C2O)c(=O)[nH]1)c1ccccc1` (configuration not stated), the TGI in assay [1], in [2], in [3], in assay [4], in assay [5] and in assay [6] was greater than 100 µM each time. Besides, the TGI in assay [7] and in [8] was greater than 100 µM in each case.

For `CC(=O)NNc1nc(C)c(C(=O)NNC(=O)C(=O)Nc2ccc(Cl)cc2Cl)s1`, the TGI is greater than 100 µM in assay [1]; greater than 100 µM in [2]; greater than 100 µM in [4]; greater than 100 µM in [6]; greater than 100 µM in assay [7]; 83.4 µM in assay [8].

On to `CCCCCCC[CH2][Sn]1([CH2]CCCCCCC)[O]C(=O)c2cccnc2[O]1`, for which the GI50 in [1], in [2], in assay [3], in assay [4], in [5] and in assay [6] was greater than 100 µM throughout. Moreover, the GI50 in [7] and in assay [8] was greater than 100 µM in each case. Moreover, the TGI in assay [1], in [2], in assay [3], in assay [4], in assay [5] and in assay [6] was greater than 100 µM throughout. For the same molecule, the TGI in assay [7] and in [8] was greater than 100 µM each time.
